Source: ChEMBL document CHEMBL1201862, “PubChem BioAssay data set” (2004)
Calls of active or inactive are those of the source.

Tests used:
[1] = system: HEK293; assay: cells; conditions: Homo sapiens
[2] = cells; format: functional, cell-based; conditions: HEK-CNG
[3] = molecular target: Cytochrome P450 2C9 (Homo sapiens, UniProt P11712)
[4] = molecular target: Cytochrome P450 3A4 (Homo sapiens, UniProt P08684);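 further: CYP3A4 tested as one member of a cytochrome P450 panel screen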
[5] = system: HEK293; assay: cells; conditions: Homo sapiens; remark: listed apart in the source
[6] = molecular target: Galanin receptor type 3 (Homo sapiens, UniProt O60755); assay: Fluorescence-based cell-based primary high throughput dose response assay to identify antagonists of the Galanin Receptor 3 (GalR3).; format: functional
Chain of Galanin receptor type 3 (O60755 whole entry): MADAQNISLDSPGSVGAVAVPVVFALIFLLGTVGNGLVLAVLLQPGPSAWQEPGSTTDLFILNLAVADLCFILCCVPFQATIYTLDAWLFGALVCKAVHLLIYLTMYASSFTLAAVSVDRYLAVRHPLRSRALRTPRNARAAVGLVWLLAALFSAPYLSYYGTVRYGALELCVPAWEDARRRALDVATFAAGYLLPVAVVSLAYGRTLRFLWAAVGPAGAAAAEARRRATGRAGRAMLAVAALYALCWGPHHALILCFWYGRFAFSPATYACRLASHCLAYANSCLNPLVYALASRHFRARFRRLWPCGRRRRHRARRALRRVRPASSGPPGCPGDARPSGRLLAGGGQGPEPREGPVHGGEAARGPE

[7] = molecular target: Cytochrome P450 2D6 (Homo sapiens, UniProt P10635);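 further: CYP2D6 member of a cytochrome P450 panel assay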
Chain of Cytochrome P450 2D6 (P10635 whole entry): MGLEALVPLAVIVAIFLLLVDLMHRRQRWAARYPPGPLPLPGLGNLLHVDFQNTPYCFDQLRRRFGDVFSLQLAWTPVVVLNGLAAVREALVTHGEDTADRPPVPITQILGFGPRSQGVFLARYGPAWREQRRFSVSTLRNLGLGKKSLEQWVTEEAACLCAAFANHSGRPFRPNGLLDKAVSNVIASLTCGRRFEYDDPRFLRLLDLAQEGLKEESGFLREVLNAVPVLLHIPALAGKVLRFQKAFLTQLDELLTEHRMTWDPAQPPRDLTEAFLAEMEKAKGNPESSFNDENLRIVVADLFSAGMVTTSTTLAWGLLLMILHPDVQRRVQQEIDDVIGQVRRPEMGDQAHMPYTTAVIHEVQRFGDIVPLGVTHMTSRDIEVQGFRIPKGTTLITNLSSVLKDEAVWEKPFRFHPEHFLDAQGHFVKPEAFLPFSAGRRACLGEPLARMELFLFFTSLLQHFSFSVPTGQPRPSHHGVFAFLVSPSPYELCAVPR

[8] = molecular target: T1, Replicative DNA helicase DnaB (Mycobacterium tuberculosis, UniProt P9WMR3); assay: DnaB intein splicing inhibitors, dose response, biochemical, cell-free fluorescence (AID 449749); format: functional
T1 sequence (P9WMR3 whole entry): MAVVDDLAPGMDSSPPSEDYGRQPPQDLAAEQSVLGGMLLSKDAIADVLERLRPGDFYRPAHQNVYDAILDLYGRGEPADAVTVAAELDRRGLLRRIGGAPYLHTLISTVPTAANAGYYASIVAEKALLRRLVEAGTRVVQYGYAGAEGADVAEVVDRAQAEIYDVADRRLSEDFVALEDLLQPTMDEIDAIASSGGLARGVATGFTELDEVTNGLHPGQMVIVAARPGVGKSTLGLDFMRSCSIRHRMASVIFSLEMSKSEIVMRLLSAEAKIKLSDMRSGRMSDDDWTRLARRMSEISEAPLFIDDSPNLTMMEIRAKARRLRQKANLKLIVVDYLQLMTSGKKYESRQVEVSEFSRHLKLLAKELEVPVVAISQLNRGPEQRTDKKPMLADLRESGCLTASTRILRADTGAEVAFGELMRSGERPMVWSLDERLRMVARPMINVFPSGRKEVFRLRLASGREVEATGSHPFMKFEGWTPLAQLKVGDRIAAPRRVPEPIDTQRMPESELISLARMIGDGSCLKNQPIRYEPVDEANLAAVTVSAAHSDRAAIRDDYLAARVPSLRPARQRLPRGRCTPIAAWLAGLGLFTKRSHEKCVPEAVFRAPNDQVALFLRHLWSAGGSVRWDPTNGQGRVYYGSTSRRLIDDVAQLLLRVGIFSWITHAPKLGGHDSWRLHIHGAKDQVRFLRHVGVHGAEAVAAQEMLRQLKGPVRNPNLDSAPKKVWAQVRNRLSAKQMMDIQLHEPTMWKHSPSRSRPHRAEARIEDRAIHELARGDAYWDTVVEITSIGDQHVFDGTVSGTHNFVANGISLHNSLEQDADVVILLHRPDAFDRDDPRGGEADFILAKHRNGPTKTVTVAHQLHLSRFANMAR

[9] = molecular target: T2, Protein RecA (Mycobacterium tuberculosis, UniProt P9WHJ3); assay: Fluorescence Cell-Free Homogeneous Dose Retest to Identify Inhibitors of RecA-Intein Splicing Activity. [Related pubchem assays (depositor defined):AID2097, AID2223, AID489010, AID492950]; format: functional
T2 sequence (P9WHJ3 whole entry): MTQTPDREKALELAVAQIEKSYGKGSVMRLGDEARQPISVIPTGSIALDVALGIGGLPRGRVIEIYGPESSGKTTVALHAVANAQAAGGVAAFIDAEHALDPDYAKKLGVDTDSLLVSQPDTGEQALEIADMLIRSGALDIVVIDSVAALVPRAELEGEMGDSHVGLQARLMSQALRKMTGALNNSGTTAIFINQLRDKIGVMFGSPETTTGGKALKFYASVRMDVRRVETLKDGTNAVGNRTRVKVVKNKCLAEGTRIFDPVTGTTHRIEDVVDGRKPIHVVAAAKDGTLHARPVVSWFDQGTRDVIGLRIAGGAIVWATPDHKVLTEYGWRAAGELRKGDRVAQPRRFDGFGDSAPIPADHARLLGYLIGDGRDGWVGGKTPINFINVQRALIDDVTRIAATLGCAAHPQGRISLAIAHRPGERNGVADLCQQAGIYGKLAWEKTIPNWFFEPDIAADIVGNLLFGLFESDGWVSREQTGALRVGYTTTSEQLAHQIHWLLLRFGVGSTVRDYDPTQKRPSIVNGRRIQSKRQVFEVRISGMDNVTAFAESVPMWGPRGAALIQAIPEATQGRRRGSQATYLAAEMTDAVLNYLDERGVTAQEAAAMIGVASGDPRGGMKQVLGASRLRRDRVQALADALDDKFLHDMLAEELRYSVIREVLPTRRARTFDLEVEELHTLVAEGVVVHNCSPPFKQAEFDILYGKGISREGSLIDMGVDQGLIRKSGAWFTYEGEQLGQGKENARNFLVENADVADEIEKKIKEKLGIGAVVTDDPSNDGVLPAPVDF

[10] = molecular target: SWI/SNF-related matrix-associated actin-dependent regulator of chromatin subfamily A member 2 (Homo sapiens, UniProt P51531); assay: Luminescence-based cell-based high throughput dose response assay to identify activators of the function of SWI/SNF related, matrix associated, actin dependent regulator of chromatin, subfamily a, member 2 (SMARCA2, BRM).; format: functional
Chain of SWI/SNF-related matrix-associated actin-dependent regulator of chromatin subfamily A member 2 (P51531 whole entry): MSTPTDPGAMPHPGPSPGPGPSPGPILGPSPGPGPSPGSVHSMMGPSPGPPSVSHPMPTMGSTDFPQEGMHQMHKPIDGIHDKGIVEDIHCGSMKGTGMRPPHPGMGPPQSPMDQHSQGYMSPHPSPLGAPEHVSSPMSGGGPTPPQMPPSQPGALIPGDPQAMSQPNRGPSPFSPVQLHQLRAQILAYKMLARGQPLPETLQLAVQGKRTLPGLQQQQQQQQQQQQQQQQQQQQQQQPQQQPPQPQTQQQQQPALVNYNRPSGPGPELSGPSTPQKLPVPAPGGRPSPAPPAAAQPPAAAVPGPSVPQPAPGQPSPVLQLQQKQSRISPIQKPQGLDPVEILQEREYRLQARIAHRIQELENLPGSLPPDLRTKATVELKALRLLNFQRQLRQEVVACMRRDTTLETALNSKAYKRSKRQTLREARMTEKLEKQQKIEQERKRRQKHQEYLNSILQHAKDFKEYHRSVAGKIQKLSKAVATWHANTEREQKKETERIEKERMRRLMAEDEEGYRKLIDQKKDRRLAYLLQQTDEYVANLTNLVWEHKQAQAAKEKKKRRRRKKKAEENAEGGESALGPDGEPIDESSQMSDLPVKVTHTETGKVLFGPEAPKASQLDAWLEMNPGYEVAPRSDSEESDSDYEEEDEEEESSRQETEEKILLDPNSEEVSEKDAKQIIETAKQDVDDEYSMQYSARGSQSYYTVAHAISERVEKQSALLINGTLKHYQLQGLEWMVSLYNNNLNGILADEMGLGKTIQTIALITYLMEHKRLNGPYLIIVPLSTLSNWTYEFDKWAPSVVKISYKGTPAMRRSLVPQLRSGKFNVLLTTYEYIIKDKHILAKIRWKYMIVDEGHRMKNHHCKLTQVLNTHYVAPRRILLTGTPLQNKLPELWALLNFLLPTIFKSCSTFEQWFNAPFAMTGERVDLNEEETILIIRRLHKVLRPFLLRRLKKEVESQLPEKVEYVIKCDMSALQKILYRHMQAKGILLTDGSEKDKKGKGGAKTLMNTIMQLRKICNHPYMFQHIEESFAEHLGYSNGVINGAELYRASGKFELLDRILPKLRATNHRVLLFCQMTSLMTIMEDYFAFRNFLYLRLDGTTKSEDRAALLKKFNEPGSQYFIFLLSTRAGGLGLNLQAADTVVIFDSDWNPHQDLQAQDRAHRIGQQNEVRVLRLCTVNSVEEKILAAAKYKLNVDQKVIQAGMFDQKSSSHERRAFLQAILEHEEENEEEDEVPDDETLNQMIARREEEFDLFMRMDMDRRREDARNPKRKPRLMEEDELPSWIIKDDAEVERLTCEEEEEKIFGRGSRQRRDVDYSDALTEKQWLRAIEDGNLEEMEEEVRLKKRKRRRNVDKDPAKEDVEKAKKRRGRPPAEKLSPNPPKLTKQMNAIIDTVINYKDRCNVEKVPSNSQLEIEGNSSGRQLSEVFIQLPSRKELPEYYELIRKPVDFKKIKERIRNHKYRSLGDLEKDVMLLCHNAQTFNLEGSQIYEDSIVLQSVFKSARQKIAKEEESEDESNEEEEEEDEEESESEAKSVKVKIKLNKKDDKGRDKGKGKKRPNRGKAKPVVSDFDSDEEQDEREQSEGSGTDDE

[11] = Counterscreen for activators of the function of SWI/SNF related, matrix associated, actin dependent regulator of chromatin, subfamily a, member 2 (SMARCA2, BRM): Luminescence-based cell-based high throughput dose response assay to identify non-selective compounds using the VP16 reporter assay.; format: functional
[12] = molecular target: Fructose-bisphosphate aldolase (Mycobacterium tuberculosis, UniProt P9WQA3); assay: Fluorescence-based biochemical high throughput dose response assay for inhibitors of the fructose-bisphosphate aldolase (FBA) of M. tuberculosis.; format: functional
Chain of Fructose-bisphosphate aldolase (P9WQA3 whole entry): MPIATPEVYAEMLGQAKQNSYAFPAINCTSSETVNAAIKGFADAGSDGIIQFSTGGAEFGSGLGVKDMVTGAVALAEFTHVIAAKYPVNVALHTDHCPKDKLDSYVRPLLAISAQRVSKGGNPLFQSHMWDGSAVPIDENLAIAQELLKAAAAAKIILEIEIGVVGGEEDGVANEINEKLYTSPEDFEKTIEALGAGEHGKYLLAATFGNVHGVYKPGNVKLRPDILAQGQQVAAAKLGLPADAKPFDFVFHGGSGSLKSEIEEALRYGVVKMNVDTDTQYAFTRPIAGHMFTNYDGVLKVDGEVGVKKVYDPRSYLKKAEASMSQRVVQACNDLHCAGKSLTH

[13] = molecular target: T3, Methionyl-tRNA synthetase, putative (Trypanosoma brucei brucei, UniProt Q38C91); format: functional, Trypanosoma brucei brucei strain 927/4 GUTat10.1
T3 sequence (Q38C91 whole entry): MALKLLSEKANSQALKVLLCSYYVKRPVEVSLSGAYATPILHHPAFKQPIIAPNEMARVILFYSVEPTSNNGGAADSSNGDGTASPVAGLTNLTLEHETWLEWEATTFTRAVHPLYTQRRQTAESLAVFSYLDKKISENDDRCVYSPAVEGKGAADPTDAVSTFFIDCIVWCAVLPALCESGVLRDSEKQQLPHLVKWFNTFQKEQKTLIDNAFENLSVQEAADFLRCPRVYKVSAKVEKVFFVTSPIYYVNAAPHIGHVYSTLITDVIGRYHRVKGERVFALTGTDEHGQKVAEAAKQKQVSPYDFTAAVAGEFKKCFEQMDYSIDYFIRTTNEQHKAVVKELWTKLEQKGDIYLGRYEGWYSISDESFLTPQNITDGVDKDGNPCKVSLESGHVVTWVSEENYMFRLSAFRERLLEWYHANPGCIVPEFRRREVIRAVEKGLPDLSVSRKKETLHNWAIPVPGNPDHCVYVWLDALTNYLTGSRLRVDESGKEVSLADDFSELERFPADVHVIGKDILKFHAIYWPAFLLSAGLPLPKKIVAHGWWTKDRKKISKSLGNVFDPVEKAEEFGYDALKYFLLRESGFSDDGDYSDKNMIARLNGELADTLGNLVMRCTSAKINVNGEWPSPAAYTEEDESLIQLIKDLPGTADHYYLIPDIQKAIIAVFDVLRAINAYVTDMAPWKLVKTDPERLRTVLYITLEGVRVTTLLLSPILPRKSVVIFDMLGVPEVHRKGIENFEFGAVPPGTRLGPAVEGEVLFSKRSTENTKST

[14] = Counterscreen for inhibitors of Trypanosoma brucei methionyl tRNA synthetase (MetRS): Luminescence-based cell-based high throughput dose response assay to identify compounds that are cytotoxic to Jurkat human T lymphocyte cells.; format: functional
[15] = molecular target: T3, Methionyl-tRNA synthetase, putative; format: functional, Trypanosoma brucei brucei strain 927/4 GUTat10.1; remark: listed apart in the source

Chain of Cytochrome P450 2C9 (P11712 whole entry): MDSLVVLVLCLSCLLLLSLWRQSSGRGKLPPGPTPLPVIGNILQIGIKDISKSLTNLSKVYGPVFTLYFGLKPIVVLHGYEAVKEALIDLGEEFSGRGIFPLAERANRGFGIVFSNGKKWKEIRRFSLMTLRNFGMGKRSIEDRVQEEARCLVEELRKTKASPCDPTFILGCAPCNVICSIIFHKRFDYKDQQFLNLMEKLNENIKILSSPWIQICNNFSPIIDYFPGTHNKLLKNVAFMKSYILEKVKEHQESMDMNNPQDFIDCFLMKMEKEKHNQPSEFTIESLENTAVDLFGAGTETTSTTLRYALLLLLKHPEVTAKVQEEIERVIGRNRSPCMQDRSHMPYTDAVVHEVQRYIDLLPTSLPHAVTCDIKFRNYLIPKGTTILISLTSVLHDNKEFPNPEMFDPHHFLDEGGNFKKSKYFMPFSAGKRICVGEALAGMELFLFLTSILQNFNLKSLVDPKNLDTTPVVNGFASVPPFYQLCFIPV
Chain of Cytochrome P450 3A4 (P08684 whole entry): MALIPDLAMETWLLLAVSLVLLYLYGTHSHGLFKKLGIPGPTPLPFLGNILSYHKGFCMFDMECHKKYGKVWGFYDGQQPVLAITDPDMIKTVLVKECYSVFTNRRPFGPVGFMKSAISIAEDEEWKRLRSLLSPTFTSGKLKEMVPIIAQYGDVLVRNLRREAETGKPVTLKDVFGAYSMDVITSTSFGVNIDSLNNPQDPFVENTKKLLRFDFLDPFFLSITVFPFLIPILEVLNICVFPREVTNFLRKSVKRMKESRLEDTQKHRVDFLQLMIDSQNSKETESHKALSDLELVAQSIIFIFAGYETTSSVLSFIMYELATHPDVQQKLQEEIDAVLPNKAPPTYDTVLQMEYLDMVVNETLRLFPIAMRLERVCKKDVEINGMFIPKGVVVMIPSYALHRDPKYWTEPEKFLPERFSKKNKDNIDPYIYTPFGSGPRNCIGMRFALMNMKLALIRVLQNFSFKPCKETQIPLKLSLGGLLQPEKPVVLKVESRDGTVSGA

With N#CCSc1nc(N)c(C#N)c(C2CCCCC2)c1C#N the EC50 [1] was > 59.6 µM (inactive), the EC50 [2] was > 29.9 µM (inactive) and the AC50 [3] was 12.6 µM (inconclusive). The AC50 [4] was 3.16 µM (inconclusive), the EC50 [5] was > 59.6 µM (inactive) and the IC50 [6] was 2.17 µM (active). For the same compound, the AC50 [7] was 39.8 µM (inconclusive).
For Brc1ccc(Cn2c(-c3ccc(Br)o3)nc3ccccc32)o1, the AC50 [8] was 147 µM (active), the EC50 [9] was 9.48 µM (active) and the EC50 [10] was > 91.2 µM (inactive). For the same compound, the EC50 [11] was > 91.2 µM (inactive).
With CCc1cc(=O)oc2cc(C)cc(OC(C)C(=O)NC3CCN(Cc4ccccc4)CC3)c12 (stereo not given) the IC50 [12] was 1.52 µM (active).
For O=C(NCCc1ccc(Cl)cc1)Nc1ccc(Cl)cc1, the IC50 [13] was 119 µM (inactive), the IC50 [14] was 83.3 µM (inactive) and the IC50 [15] was 2.58 µM (active).
